# Experimental data published in PMC6504997 (ACS chemical biology, 2018).
# Target: EXOSC3 (GST-EXOSC3, EXOSC3-WT) (Homo sapiens, UniProt Q9NQT5)
# Experiment: MST, inhibition of RNA binding
# Settings: 3.12 μM long G-rich RNA (GGGAGGGAGGGAGAGGGA)
# EXOSC3 (GST-EXOSC3, EXOSC3-WT), sequence (Q9NQT5 whole entry): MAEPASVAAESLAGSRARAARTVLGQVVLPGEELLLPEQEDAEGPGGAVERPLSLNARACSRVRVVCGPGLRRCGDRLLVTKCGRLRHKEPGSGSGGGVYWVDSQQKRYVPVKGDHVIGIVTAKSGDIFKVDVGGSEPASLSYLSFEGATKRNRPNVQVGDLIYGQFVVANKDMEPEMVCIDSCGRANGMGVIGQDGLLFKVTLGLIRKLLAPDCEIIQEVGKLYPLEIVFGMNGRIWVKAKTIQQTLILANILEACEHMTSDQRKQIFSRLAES
structure (smiles),measurement,value
"CC(C)(O)CCc1cccc(C(=O)N2Cc3ccccc3C(O)C2)c1 (stereo not shown) [ERD03, EXOSC3-RNA disrupting (ERD) compound 3]",% inhibition at 50 μM,54 ± 10%
